In the experiment the target is LONP1 (NM_004793.4) (Homo sapiens (Human), UniProt P36776). Nature of the experiment: LONP1 FRET-based protease activity assay (fluorogenic peptide substrate). Type of experiment: biochemical. Particulars: LONP1 15 nM, substrate 3 μM, 15 min preincubation, 1 hour at 37° C.; average of a minimum of two repeats. How it is done:
Inhibition of LONP1 protease activity by an inhibitor compound of the disclosure elicits a decrease in the fluorescent signal.
The LONP1-containing mix (10 μL) was incubated with the test compound for 15 min at 37° C. before adding the peptide-containing mix (5 μL). Solutions were dispensed using a small cassette-Multidrop Combi (Thermo Scientific).
Each value is based on an average of a minimum of two repeats.
Chain of LONP1 (NM_004793.4) (P36776 68-959): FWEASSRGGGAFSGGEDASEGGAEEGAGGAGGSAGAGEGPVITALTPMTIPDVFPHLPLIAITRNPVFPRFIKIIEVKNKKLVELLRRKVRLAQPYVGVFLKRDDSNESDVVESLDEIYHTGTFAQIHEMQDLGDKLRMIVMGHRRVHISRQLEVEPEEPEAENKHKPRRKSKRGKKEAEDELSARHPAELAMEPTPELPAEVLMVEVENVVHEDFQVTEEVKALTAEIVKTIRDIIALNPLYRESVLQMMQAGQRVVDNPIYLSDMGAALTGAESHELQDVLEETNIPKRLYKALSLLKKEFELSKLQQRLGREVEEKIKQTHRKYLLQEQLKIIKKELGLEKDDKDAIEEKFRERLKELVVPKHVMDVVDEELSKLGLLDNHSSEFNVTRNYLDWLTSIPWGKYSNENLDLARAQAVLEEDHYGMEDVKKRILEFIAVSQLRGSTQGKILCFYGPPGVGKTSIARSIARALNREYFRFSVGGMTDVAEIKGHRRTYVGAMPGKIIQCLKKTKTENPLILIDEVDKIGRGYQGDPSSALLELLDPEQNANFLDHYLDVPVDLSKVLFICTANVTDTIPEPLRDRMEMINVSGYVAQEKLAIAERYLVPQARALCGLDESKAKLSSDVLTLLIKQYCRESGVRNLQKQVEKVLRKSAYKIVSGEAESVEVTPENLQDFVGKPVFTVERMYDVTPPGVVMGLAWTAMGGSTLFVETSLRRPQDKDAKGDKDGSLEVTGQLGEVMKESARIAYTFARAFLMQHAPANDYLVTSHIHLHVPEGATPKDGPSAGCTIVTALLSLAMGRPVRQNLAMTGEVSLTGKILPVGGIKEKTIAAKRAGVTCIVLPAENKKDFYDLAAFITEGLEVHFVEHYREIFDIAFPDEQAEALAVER
Usually IC50 stands for the concentration needed to halve the response being measured. Compound `O=C(N[C@H](CC(=O)N1CCOCC1)C(=O)NC(CCCc1ccccc1)B(O)O)C1CCCCC1` (stereo in doubt) [Compound 41, ((R)-1-((R)-2-(cyclohexanecarboxamido)-4-morpholino-4-oxobutanamido)-4-phenylbutyl)boronic acid] showed an IC50 below 50 nM.
`O=C(N[C@H](CC(=O)N1CCOCC1)C(=O)NC(CCCc1ccccc1)B(O)O)C1CCOCC1` (stereo in doubt) [Compound 42, ((R)-1-((R)-4-morpholino-4-oxo-2-(tetrahydro-2H-pyran-4-carboxamido)butanamido)-4-phenylbutyl)boronic acid] returned an IC50 below 50 nM.
`O=C(NC(CC(=O)N1CCOCC1)C(=O)N[C@@H](Cc1ccccc1)B(O)O)c1cnccn1` (stereo in doubt) [Compound 47, ((R)-1-((R)-4-morpholino-4-oxo-2-(pyrazine-2-carboxamido)butanamido)-2-phenylethyl)boronic acid] gave a half-inhibitory concentration (IC50) above 5000 nM.
The result for `O=C(C[C@@H](NC(=O)c1cnccn1)C(=O)N[C@@H](CCCc1ccccc1)B(O)O)c1ccccc1` [Compound 3, ((1R)-1-(4-oxo-4-phenyl-2-(pyrazine-2-carboxamido)butanamido)-4-phenylbutyl)boronic acid] reads below 50 nM.
The value for `CC(C)C[C@H](NC(=O)[C@@H](CC(=O)N1CCOCC1)NC(=O)c1cnccn1)B(O)O` [Compound 4, ((R)-3-methyl-1-((R)-4-morpholino-4-oxo-2-(pyrazine-2-carboxamido)butanamido)butyl)boronic acid] was below 50 nM; that for `O=C(N[C@H](CC(=O)N1CCOCC1)C(=O)N[C@@H](CCc1ccccc1)B(O)O)c1cnccn1` [Compound 5, ((R)-1-((R)-4-morpholino-4-oxo-2-(pyrazine-2-carboxamido)butanamido)-3-phenylpropyl)boronic acid] was below 50 nM.
The value for `CCCC[C@H](NC(=O)[C@@H](CC(=O)N1CCOCC1)NC(=O)c1cnccn1)B(O)O` [Compound 6, ((R)-1-((R)-4-morpholino-4-oxo-2-(pyrazine-2-carboxamido)butanamido)pentyl)boronic acid] was below 50 nM; that for `Cc1nc(C)c(C(=O)N[C@H](CC(=O)N2CCOCC2)C(=O)N[C@@H](CC(C)C)B(O)O)o1` [Compound 7, ((R)-1-((R)-2-(2,4-dimethyloxazole-5-carboxamido)-4-morpholino-4-oxobutanamido)-3-methylbutyl)boronic acid] was below 50 nM; that for `CN(C)C(=O)C[C@@H](NC(=O)c1cnccn1)C(=O)N[C@@H](CCCc1ccccc1)B(O)O` [Compound 8, ((R)-1-((R)-4-(dimethylamino)-4-oxo-2-(pyrazine-2-carboxamido)butanamido)-4-phenylbutyl)boronic acid] was below 50 nM.
Consider `CCNC(=O)C[C@@H](NC(=O)c1cnccn1)C(=O)N[C@@H](CCCc1ccccc1)B(O)O` [Compound 9, ((R)-1-((R)-4-(ethylamino)-4-oxo-2-(pyrazine-2-carboxamido)butanamido)-4-phenylbutyl)boronic acid], for which the IC50 is below 50 nM.
The result for `NC(=O)C[C@@H](NC(=O)c1cnccn1)C(=O)N[C@@H](CCCc1ccccc1)B(O)O` [Compound 10, ((R)-1-((R)-4-amino-4-oxo-2-(pyrazine-2-carboxamido)butanamido)-4-phenylbutyl)boronic acid] reads below 50 nM; that for `O=C(N[C@H](CC(=O)N1CCCCC1)C(=O)N[C@@H](CCCc1ccccc1)B(O)O)c1cnccn1` [Compound 11, ((R)-1-((R)-4-oxo-4-(piperidin-1-yl)-2-(pyrazine-2-carboxamido)butanamido)-4-phenylbutyl)boronic acid], below 50 nM; that for `CC(=O)N[C@H](CC(=O)N1CCOCC1)C(=O)N[C@@H](CCCc1ccccc1)B(O)O` [Compound 19, ((R)-1-((R)-2-acetamido-4-morpholino-4-oxobutanamido)-4-phenylbutyl)boronic acid], below 50 nM.
Turning to `O=C(N[C@@H](CCCc1ccccc1)B(O)O)[C@@H](CC(=O)N1CCOCC1)NC(=O)N1CCOCC1` [Compound 20, ((R)-1-((R)-2-(morpholine-4-carboxamido)-4-morpholino-4-oxobutanamido)-4-phenylbutyl)boronic acid], the IC50 was below 50 nM.
The value for `CC(C)(C)OC(=O)N[C@H](CC(=O)N1CCOCC1)C(=O)N[C@@H](CCCc1ccccc1)B(O)O` [Compound 21, ((R)-1-((R)-2-((tert-butoxycarbonyl)amino)-4-morpholino-4-oxobutanamido)-4-phenylbutyl)boronic acid] was below 50 nM; that for `CC(C)(C)NC(=O)N[C@H](CC(=O)N1CCOCC1)C(=O)N[C@@H](CCCc1ccccc1)B(O)O` [Compound 22, ((R)-1-((R)-2-(3-(tert-butyl)ureido)-4-morpholino-4-oxobutanamido)-4-phenylbutyl)boronic acid] was 50 to 500 nM; that for `O=C(N[C@H](CCC(=O)N1CCOCC1)C(=O)N[C@@H](CCCc1ccccc1)B(O)O)c1cnccn1` [Compound 23, ((R)-1-((R)-5-morpholino-5-oxo-2-(pyrazine-2-carboxamido)pentanamido)-4-phenylbutyl)boronic acid] was below 50 nM.
The value for `CN(C)S(=O)(=O)C[C@@H](NC(=O)c1cnccn1)C(=O)N[C@@H](CCCc1ccccc1)B(O)O` [Compound 27, ((R)-1-((S)-3-(N,N-dimethylsulfamoyl)-2-(pyrazine-2-carboxamido)propanamido)-4-phenylbutyl)boronic acid] was below 50 nM.
The result for `O=C(N[C@H](COc1ccccn1)C(=O)N[C@@H](CCCc1ccccc1)B(O)O)c1cnccn1` [Compound 29, ((R)-4-phenyl-1-((R)-2-(pyrazine-2-carboxamido)-3-(pyridin-2-yloxy)propanamido)butyl)boronic acid] reads below 50 nM; that for `CCC[C@H](NC(=O)[C@@H](CC(=O)N1CCOCC1)NC(=O)c1cnccn1)B(O)O` [Compound 31, ((R)-1-((R)-4-morpholino-4-oxo-2-(pyrazine-2-carboxamido)butanamido)butyl)boronic acid], below 50 nM.
With `CC[C@H](NC(=O)[C@@H](CC(=O)N1CCOCC1)NC(=O)c1cnccn1)B(O)O` [Compound 32, ((R)-1-((R)-4-morpholino-4-oxo-2-(pyrazine-2-carboxamido)butanamido)propyl)boronic acid], the IC50 is below 50 nM.
The compound `CN(C)C(=O)N[C@H](CC(=O)N1CCOCC1)C(=O)N[C@@H](CCCc1ccccc1)B(O)O` [Compound 33, ((R)-1-((R)-2-(3,3-dimethylureido)-4-morpholino-4-oxobutanamido)-4-phenylbutyl)boronic acid] yielded an IC50 below 50 nM.
The value for `CS(=O)(=O)CC[C@@H](NC(=O)c1cnccn1)C(=O)N[C@@H](CCCc1ccccc1)B(O)O` [Compound 35, ((R)-1-((R)-4-(methylsulfonyl)-2-(pyrazine-2-carboxamido)butanamido)-4-phenylbutyl)boronic acid] was below 50 nM; that for `COC[C@@H](NC(=O)c1cnccn1)C(=O)N[C@@H](CCCc1ccccc1)B(O)O` [Compound 37, ((R)-1-((R)-3-methoxy-2-(pyrazine-2-carboxamido)propanamido)-4-phenylbutyl)boronic acid] was below 50 nM.
As for `COC[C@@H](NC(=O)c1cnccn1)C(=O)N[C@@H](COCc1ccccc1)B(O)O` [Compound 38, ((R)-2-(benzyloxy)-1-((R)-3-methoxy-2-(pyrazine-2-carboxamido)propanamido)ethyl)boronic acid], the IC50 was below 50 nM.
`CCC[C@@H](NC(=O)c1cnccn1)C(=O)N[C@@H](COCc1ccccc1)B(O)O` [Compound 39, ((R)-2-(benzyloxy)-1-((R)-2-(pyrazine-2-carboxamido)pentanamido)ethyl)boronic acid] yielded an IC50 below 50 nM.
`O=C(N[C@@H](CCCc1ccccc1)B(O)O)[C@@H](CC(=O)N1CCOCC1)NS(=O)(=O)c1ccccc1` [Compound 43, ((R)-1-((R)-4-morpholino-4-oxo-2-(phenylsulfonamido)butanamido)-4-phenylbutyl)boronic acid] displayed an IC50 below 50 nM.
The value for `O=C(N[C@H](CC(=O)N1CCOCC1)C(=O)N[C@@H](CCCc1ccccc1)B(O)O)C1CCCCO1` (stereo partly drawn) [Compound 44, ((1R)-1-((2R)-4-morpholino-4-oxo-2-(tetrahydro-2H-pyran-2-carboxamido)butanamido)-4-phenylbutyl)boronic acid] was below 50 nM; that for `COC[C@@H](NC(=O)c1ccccc1)C(=O)N[C@@H](CCCc1ccccc1)B(O)O` [Compound 48, ((R)-1-((R)-2-benzamido-3-methoxypropanamido)-4-phenylbutyl)boronic acid] was below 50 nM.
The value for `COC[C@@H](NC(=O)c1cccc(OC)n1)C(=O)N[C@@H](CCCc1ccccc1)B(O)O` [Compound 50, ((R)-1-((R)-3-methoxy-2-(6-methoxypicolinamido)propanamido)-4-phenylbutyl)boronic acid] was below 50 nM; that for `CCC[C@H](C(=O)N[C@@H](CCCc1ccccc1)B(O)O)N(C)C(=O)c1cnccn1` [Compound 51, ((R)-1-((R)-2-(N-methylpyrazine-2-carboxamido)pentanamido)-4-phenylbutyl)boronic acid] was 50 to 500 nM; that for `CCC[C@H](C(=O)N(C)[C@@H](CCCc1ccccc1)B(O)O)N(C)C(=O)c1cnccn1` [Compound 52, ((R)-1-((R)—N-methyl-2-(N-methylpyrazine-2-carboxamido)pentanamido)-4-phenylbutyl)boronic acid] was 50 to 500 nM.

The values above are taken from patent publication US20250059213A1, “LONP1 INHIBITORS, USES AND METHODS” (Pretzel Therapeutics, Inc., priority 2021, published 2025).
